From US20170273961A1, “NOVEL IMINONITRILE DERIVATIVES” (CURADEV PHARMA, PVT. LTD., priority 2014, published 2017) come the findings set out here.

The structures appear in SMILES notation.

In this assay the target is T1, IDO1 (Mus musculus, UniProt P28776).
T1 construct: LPS-injected mice have been used as models to study IDO1 expression and activity; from tissue; host or cells: whole animal: LPS-injected C57BL/6 mice, with IDO1 induced in a variety of tissues
T1 sequence (P28776 whole entry): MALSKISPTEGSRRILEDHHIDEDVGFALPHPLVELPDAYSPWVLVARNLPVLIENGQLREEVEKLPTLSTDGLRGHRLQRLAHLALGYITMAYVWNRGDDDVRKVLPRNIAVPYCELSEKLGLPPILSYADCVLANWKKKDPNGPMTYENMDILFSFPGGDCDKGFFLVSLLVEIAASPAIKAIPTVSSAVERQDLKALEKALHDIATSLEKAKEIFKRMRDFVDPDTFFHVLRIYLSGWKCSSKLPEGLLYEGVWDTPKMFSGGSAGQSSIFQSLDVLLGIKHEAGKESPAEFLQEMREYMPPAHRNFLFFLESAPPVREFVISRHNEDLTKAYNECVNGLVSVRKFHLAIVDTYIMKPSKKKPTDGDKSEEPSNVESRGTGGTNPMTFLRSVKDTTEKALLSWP
The assay can be described thus: Reduction of LPS induced plasma kynurenine levels in C57BL/6 mice. Type of assay: in vivo. Conditions: LPS-injected (6 mg/kg i.p.) C57BL/6 mice; test compound given orally 20 h after LPS; plasma KYN by LC/MS/MS at 2 hr post dosing. An excerpt:
Inflammatory mediators such as Lipopolysaccharides (LPS) and Interferon-gamma (IFNg) are well-established inducers of IDO1 expression. Intraperitoneal (i.p.) administration of bacterial lipopolysaccharide (LPS) induces peak IDO1 activity in a variety of tissues within one day after LPS administration resulting in the production and release of kynurenine into the bloodstream (Takikawa, O., et al. (1986) J. Biol. Chem. 261:3648-53; Yoshida, H., et al. (1998) Cell 94:739-750). LPS-injected mice have been used as models to study IDO1 expression and activity. Three—eight fed C57 BL/6 mice (age 7-8 weeks, weight: about 20-22 g) were injected intrapritoneally with bacterial lipopolysaccharide (LPS; 26:B6 Sigma) at a concentration of 6 mg/kg. Animals were then housed in normal condition for 20 hours at which time the test compounds were administered orally in formulation containing 30% polyethylene glycol 400 (PEG 400) and 20% propylene glycol (PG) in normal saline (Dosing volume 10 mL/kg). Blood was drawn through retro-orbital bleeds into a tube containing 100 mM EDTA for plasma collection at the following times: just prior to LPS treatment, just prior to test compound dosing (0 hr) and then at 2 hr, 4 hr, 6 hr, 8 hr, 24 hr and 48 hr post-test compound dosing. Plasma KYN and drug levels were determined by LC/MS/MS using an API4000 mass spectrometer (Applied Biosystems) coupled to a Shimadzu Prominence LC system fitted with a C18 column.
The compounds of the invention decrease kynurenine levels. The compounds of the invention trigger a decrease of kynurenine levels at 2 hrs of at least 5%.
Turning to `N#C/C(=N\c1cccc(C(F)(F)F)c1)c1ccncc1O` [Compound 34, 3-Hydroxy-N-(3-(trifluoromethyl)phenyl)isonicotinimidoyl nitrile], the “percentage of decrease of kynurenine level at two hours” value (“percentage of decrease … at two hours” for short) was determined as 67%.

For the compound `N#C/C(=N\c1cccc(C(F)(F)F)c1)c1ccnc(-c2ccncc2)c1O` [Compound 28, 3-Hydroxy-N-(3-(trifluoromethyl)phenyl)-[2,4′-bipyridine]-4-carbimidoyl nitrile], the “percentage of decrease … at two hours” value is reported as 70%.

For the compound `CNC(=O)c1cc(-c2nccc(/C(C#N)=N/c3ccc(F)cc3)c2O)ccn1` [Compound 32, N-(4-Fluorophenyl)-3-hydroxy-2′-(methylcarbamoyl)-[2,4′-bipyridine]-4-carbimidoyl nitrile], the “percentage of decrease … at two hours” value was determined as 67%.

Consider `Cc1cc(-c2nccc(/C(C#N)=N/c3ccccc3)c2O)ccn1` [Compound 24, 3-Hydroxy-2′-methyl-N-phenyl-[2,4′-bipyridine]-4-carbimidoyl nitrile], for which the “percentage of decrease … at two hours” value turned out to be 81%.

With `N#C/C(=N\c1ccc(F)c(Cl)c1)c1ccnc(-c2cc(F)nc(F)c2)c1O` [Compound 21, N-(3-Chloro-4-fluorophenyl)-2′,6′-difluoro-3-hydroxy-[2,4′-bipyridine]-4-carbimidoyl nitrile], the “percentage of decrease … at two hours” value is listed as 21%.

As to `N#C/C(=N\c1ccc(F)c(Cl)c1)c1ccnc(-c2cccnc2)c1O` [Compound 44, N-(3-Chloro-4-fluorophenyl)-3-hydroxy-[2,3′-bipyridine]-4-carbimidoyl nitrile], the “percentage of decrease … at two hours” value is listed as 77%.

In the case of `Cc1cc(-c2nccc(/C(C#N)=N/c3ccc(F)cc3F)c2O)ccn1` [Compound 27, N-(2,4-Difluorophenyl)-3-hydroxy-2′-methyl-[2,4′-bipyridine]-4-carbimidoyl nitrile], the “percentage of decrease … at two hours” value is 64%.

On to `N#C/C(=N\c1ccc(F)c(F)c1)c1ccncc1O` [Compound 36, N-(3,4-Difluorophenyl)-3-hydroxyisonicotinimidoyl nitrile], for which the “percentage of decrease … at two hours” value turned out to be 79%.

Consider `CNC(=O)c1cc(-c2nccc(/C(C#N)=N/c3ccc(F)c(Cl)c3)c2O)ccn1` [Compound 07, N-(3-Chloro-4-fluorophenyl)-3-hydroxy-2′-(methylcarbamoyl)-[2,4′-bipyridine]-4-carbimidoyl nitrile], for which the “percentage of decrease … at two hours” value turned out to be 43%.

In the case of `N#C/C(=N\c1ccc(F)c(Cl)c1)c1ccnc(C#N)c1O` [Compound 02, N-(3-Chloro-4-fluorophenyl)-2-cyano-3-hydroxyIsonicotinimidoyl nitrile], the “percentage of decrease … at two hours” value is given as 45%.

With `Cc1nccc(/C(C#N)=N/c2ccc(F)c(Cl)c2)c1O` [Compound 18, N-(3-Chloro-4-fluorophenyl)-3-hydroxy-2-methylisonicotinimidoyl nitrile], the “percentage of decrease … at two hours” value is listed as 53%.

For `Cc1cc(-c2nc(C)cc(/C(C#N)=N/c3ccc(F)c(Cl)c3)c2O)ccn1` [Compound 26, N-(3-Chloro-4-fluorophenyl)-3-hydroxy-2′,6-dimethyl-[2,4′-bipyridine]-4-carbimidoyl nitrile], the “percentage of decrease … at two hours” value was 11%.

For `Cc1cc(-c2nccc(/C(C#N)=N/c3ccccc3Cl)c2O)ccn1` [Compound 25, N-(2-Chlorophenyl)-3-hydroxy-2′-methyl-[2,4′-bipyridine]-4-carbimidoyl nitrile], the “percentage of decrease … at two hours” value was 37%.

As for `Cc1cc(-c2nccc(/C(C#N)=N/c3ccc(F)c(C(F)(F)F)c3)c2O)ccn1` [Compound 39, N-(4-Fluoro-3-(trifluoromethyl)phenyl)-3-hydroxy-2′-methyl-[2,4′-bipyridine]-4-carbimidoyl nitrile], the “percentage of decrease … at two hours” value is 67%.

Turning to `COc1cc(-c2nccc(/C(C#N)=N/c3ccc(F)c(Cl)c3)c2O)ccn1` [Compound 15, N-(3-Chloro-4-fluorophenyl)-3-hydroxy-2′-methoxy-[2,4′-bipyridine]-4-carbimidoyl nitrile], the “percentage of decrease … at two hours” value stood at 47%.

As for `Cc1cc(-c2nccc(/C(C#N)=N/c3ccc(F)c(Cl)c3)c2O)ccn1` [Compound 09, N-(3-Chloro-4-fluorophenyl)-3-hydroxy-2′-methyl-[2,4′-bipyridine]-4-carbimidoyl nitrile], the “percentage of decrease … at two hours” value came to 71%.
